Results taken from patent publication US4339390A, “Preferential immunoreactivity of syn-isomer of cortisol derivative” (Abbott Laboratories, priority 1981, dated 1982).

System: cortisol antibodies (antisera to cortisol-3-carboxymethyloxime-BSA)
Assay: competitive radioimmunoassay, binding affinity curves on antibody-coated polystyrene beads
Design: species or system rabbit
Description: Female rabbits were immunized subcutaneously at multiple sites with 1 mg of cortisol-3-CMO-BSA conjugate, prepared according to method of example 1, in saline emulsified with complete Freund's adjuvant (Difco Laboratories, Detroit, Michigan) on weeks 1, 2, 3 and 4 with booster injections of […] of the immunogen being given at longer intervals according to the antibody titer. Blood was collected from the marginal ear vein after three months of immunization. The serum was harvested and frozen for future use.
Into appropriately labeled 12×75 mm plastic tubes containing polystyrene beads coated with cortisol antibodies generated according to this disclosure, was added 25 μl of standard serum, followed by 300 μl of radioactive assay solution containing a mixture of borate buffered saline, pH 8.8; 0.12% Triton X 100 and approximately 0.25 ng/ml of either the syn, anti or racemic mixture of ^125 I labeled tyrosine methyl ester derivative of cortisol-21-acetate-3-carboxymethyloxime. The reaction mixture was incubated with agitation at room temperature for one hour. The liquid contents of the tubes were aspirated and the radioactivity bound to the antibody coated beads was counted. The percent bound versus cortisol concentration was plotted. […] Knowing this preference, it would be advantageous in terms of sensitivity and specificity to employ only the syn isomer in assays for the determination of cortisol in biological fluids.

## COC(=O)[C@H](Cc1ccc(O)c([125I])c1)NC(=O)CO/N=C1\C=C2CC[C@@H]3[C@H]([C@@H](O)C[C@@]4(C)[C@H]3CC[C@]4(O)C(=O)COC(C)=O)[C@@]2(C)CC1 [I^125 syn isomer]
approx. 0.25 ng/ml tracer, room temperature, one hour, borate buffered saline pH 8.8, compared with anti isomer and racemic mixture
  affinity of antibody for labeled antigen conjugate (percent bound versus cortisol concentration): demonstrably greater affinity
Compared with I^125 -anti-isomer and I^125 -mixture (syn and anti)
  affinity constant calculated from slope of standard curves (FIG. 1): highest
Compared with labeled anti-isomer and racemic mixture
  immunoavidity of antisera for the labeled isomer: significant preference in immunoavidity
Standard curves
  sensitivity of the antibody for the labeled isomer (FIG. 1): increased sensitivity
